Measured values published in US11691974B2, “3,9-diazaspiro[5,5]undecane compound as FLT3 and AXL inhibitors” (MEDSHINE DISCOVERY INC., priority 2018, dated 2023).

What was measured:
[1] = tested on: human biphenotypic B bone marrow mononuclear leukemia cell MV4-11 subcutaneous xenograft tumor; test: Inhibition of MV4-11 subcutaneous xenograft tumor in vivo; parameters: species or system nude mice
Procedure: In this assay, the anti-tumor effect of the compounds was evaluated using a nude mice model of subcutaneous xenograft tumor of human biphenotypic B bone marrow mononuclear leukemia cell MV4-11.
Human biphenotypic B bone marrow mononuclear leukemia cell MV4-11 was cultured in vitro in suspension with a RPMI1640 medium supplemented with 10% fetal bovine serum, 100 U/mL penicillin and 100 μg/mL streptomycin in a 5% CO2 cell incubator at 37° C. Routine passaging was performed twice a week. Cells in the logarithmic growth phase were collected, counted and then used for inoculation.
10×10^6 MV4-11 cells were inoculated subcutaneously on the back of the right neck of each mouse, wherein the inoculation volume was 0.2 mL, and the cell suspension was PBS plus matrigel (volume ratio 1:1). The assay of efficacy in vivo was performed on the 13th day after the cell inoculation, at which time the average tumor volume reached 181 mm^3. The mice were randomly divided into groups with 6 mice in each group, and administration to the mice started.
The diameter of the tumor was measured with vernier calipers twice a week. The formula for calculating the tumor volume is: V=0.5a×b^2, where a and b represent the long and short diameters of the tumor, respectively.
After 14 days of administration, the administration was stopped, and the rebound of the tumor was observed.

[2] = In vivo pharmacokinetic study in mice; parameters: species or system CD-1 male mice; settings: male, CD-1, mouse, plasma
Procedure: CD-1 male mice aged 7 to 10 weeks were selected. The doses for intravenous and oral administration were 1 mg/kg and 2.5 mg/kg, respectively. The mice were fasted for at least 12 hours before the administration, and resumed feeding 4 hours after the administration. The mice had free access to water throughout the assay period.
On the day of the assay, the animals in the intravenous group were administrated the corresponding compound through a single injection in the tail vein at an administration volume of 5 mL/kg; the oral group were administrated the corresponding compound through a single intragastric gavage at an administration volume of 10 mL/kg. The animals were weighed before administration, and the administration volume was calculated based on the body weight. The time for collecting samples was: 0.083 (the injection group), 0.25, 0.5, 1, 2, 4, 8, 24 h. About 30 μL of whole blood was collected from the saphenous vein at each time point to prepare plasma for concentration determination by high-performance liquid chromatography-tandem mass spectrometry (LC-MS/MS). All animals were euthanized by CO2 anesthesia after collecting the PK samples at the last time point. The plasma concentrations were processed by non-compartmental model of WinNonlin™ Version 6.3 (Pharsight, Mountain View, Calif.) pharmacokinetic software, and the pharmacokinetic parameters were calculated by the linear logarithm trapezoidal method.

[3] = 5 mg/kg oral once a day for 14 days, then drug withdrawal

AUC(0-t) ([2]; iv, injection 1 mg/kg): 0.604 µM·h
clearance ([2]; iv, injection 1 mg/kg): 48.5 mL/min/kg
half-life ([2]; iv, injection 1 mg/kg): 2.4 h
Vd ([2]; iv, injection 1 mg/kg, read-out: Vdss): 8.63 L/kg
AUC(0-t) ([2]; oral administration 2.5 mg/kg): 0.598 µM·h
bioavailability ([2]; oral administration 2.5 mg/kg): 37.3%
half-life ([2]; oral administration 2.5 mg/kg): 4.41 h
Compound: CCc1nc(C(N)=O)c(Nc2ccc(N3CCC4(CCN(C)CC4)CC3)c(C)c2)nc1NC1CCOCC1
% Inhibition rate on day 14 ([1]; 5 mg/kg oral once a day): 119%
Average tumor volume Day 14 ([1]; 5 mg/kg oral once a day): 32 cubic millimeter
Average tumor volume Day 25 [1, 3]: 234 cubic millimeter
Average tumor volume Day 35 [1, 3]: 849 cubic millimeter
Average tumor volume Day 0 ([1]; baseline at start of dosing, 5 mg/kg oral once a day group): 181 cubic millimeter
